# Measurements as given in patent publication US20140235542A1, “MODULAR, BIOACTIVE PEPTIDES FOR BINDING NATIVE BONE AND IMPROVING BONE GRAFT OSTEOINDUCTIVITY” (WISCONSIN ALUMNI RESEARCH FOUNDATION, priority 2013, published 2014).
# Square brackets hold non-standard residues; d marks the D form. Ends that are not written are not given here. Gla = N[C@@H](CC(C(=O)O)C(=O)O)C(=O)O
# Experiments:
# [1] = Binding of 5(6)-FAM-conjugated modular peptides to HA-coated PLG films; details: 4 hr, 37° C.
# Method: Poly (lactide-coglycolide) (PLG) films were prepared via a solvent casting process in which PLG (85:15) pellets were dissolved in chloroform (50 mg/ml), added to a PTFE dish, and dried for 2 days. The films were further dried at 50-55° C. for 4 hr to remove residual solvent and samples were cooled to room temperature. Square films (1 cm^2) were manually cut out of the resulting PLG film sheets. A “bone-like” HA-based material layer was grown on the PLG films using a direct deposition technique by biomimetic mineralization in modified simulated body fluid (mSBF).
# To measure the binding efficiency of modular peptides to the HA-coated PLG films and to gain preliminary insight into the properties that influence modular peptide immobilization, 1 cm^2 HA-coated PLG films was first exposed to PBS solutions containing 500 μg (1 mg/ml) of 5(6) FAM-conjugated eBMP-2, eBGu1, eBGu3, eBGa1, or eBGa3 modular peptide solution (See Table 1 for definitions of these abbreviations). The films were incubated in peptide solutions with constant agitation for 4 hr at 37° C., and the amount of free peptide remaining was determined by measuring the fluorescence emission of the solution (excitation: 494 nm; emission 519 nm) using a Synergy HT Multi-Detection Microplate Reader (BioTek, Winooski, Vt.), and comparing this emission to standard samples with known concentrations of 5(6)-FAM. To further characterize surface immobilization of the peptide with the highest binding efficiency—the eBGa3 peptide-1 cm^2 HA-coated films were incubated in various concentrations (50-750 nM) of 5(6)-FAM-conjugated eBGa3 peptide for 4 hr with constant agitation at 37° C. The amount of peptide bound to HA-coated film was again determined by fluorescence analysis, as described above.
# [2] = Release kinetics of modular peptides from HA-coated film; details: after 70 days
# Method: To quantify release kinetics of 5(6) FAM-conjugated modular peptides from HA-coated film, the films were first incubated in solutions containing 250 μM (˜500 μg) of each peptide (eBGu1, eBGu3, eBGa1, or eBGa3) to allow for binding (as described above), then incubated in 500 μl of PBS buffer at 37° C. with constant agitation for 5 days (eBGu1 and eBGu3 peptides) or 10 weeks (eBGa1 and eBGa3 peptides), respectively. Whole buffer solutions were changed at indicated time points and the amount of peptide released from the HA-coated film was determined via fluorescence analysis and comparison with standards containing known amounts of 5(6)-FAM. The fluorescent images of fluorescently-labeled peptides bound to HA-coated films were obtained using an Olympus IX51 fluorescence microscope (Olympus, Center Valley, Pa.).
substance,measurement,setting,value
KIPKASSVPTELSAISTLYLAAAAγEPRRγEVAγEL (KIPKASSVPTELSAISTLYLAAAA[Gla]PRR[Gla]VA[Gla]L-NH2; N-terminus assumed; SMILES CC[C@H](C)[C@H](NC(=O)[C@H](C)NC(=O)[C@H](CO)NC(=O)[C@H](CC(C)C)NC(=O)[C@H](CCC(=O)O)NC(=O)[C@@H](NC(=O)[C@@H]1CCCN1C(=O)[C@@H](NC(=O)[C@H](CO)NC(=O)[C@H](CO)NC(=O)[C@H](C)NC(=O)[C@H](CCCCN)NC(=O)[C@@H]1CCCN1C(=O)[C@@H](NC(=O)[C@@H](N)CCCCN)[C@@H](C)CC)C(C)C)[C@@H](C)O)C(=O)N[C@@H](CO)C(=O)N[C@H](C(=O)N[C@@H](CC(C)C)C(=O)N[C@@H](Cc1ccc(O)cc1)C(=O)N[C@@H](CC(C)C)C(=O)N[C@@H](C)C(=O)N[C@@H](C)C(=O)N[C@@H](C)C(=O)N[C@@H](C)C(=O)N[C@@H](CC(C(=O)O)C(=O)O)C(=O)N1CCC[C@H]1C(=O)N[C@@H](CCCNC(=N)N)C(=O)N[C@@H](CCCNC(=N)N)C(=O)N[C@@H](CC(C(=O)O)C(=O)O)C(=O)N[C@H](C(=O)N[C@@H](C)C(=O)N[C@@H](CC(C(=O)O)C(=O)O)C(=O)N[C@@H](CC(C)C)C(N)=O)C(C)C)[C@@H](C)O) [eBGa3],binding efficiency on the HA-coated PLG films,"[1]; 500 μg (1 mg/ml) 5(6)-FAM-conjugated peptide in PBS, constant agitation",55.9±2.2%
same,peptide amount at which bound amount reached saturation,[1]; HA-coated film,~300 µg
same,peptide concentration at which bound amount reached saturation,[1]; HA-coated film,approximately 150 μM
same,initially bound peptide remaining bound,[2],~85%
same,peptide released from HA-coated films,"[2]; PBS, 37° C.",15.7±0.6%
